Where “and” joins values, the source holds several entries; their conditions need not be identical. Identical values can stand only once.
Tests used:
Format in all cases: in vivo
[1] = tested on: Histamine-Induced Itch Model in Male C57BL/6 Mice; assay: Histamine-Induced Itch Model (Example 3); settings: oral gavage 90 min before 100 μg histamine cheek injection; 1, 3, 10, 30 and 100 mg/kg
Experimental: PF-06372865 (an alpha 2, alpha 3, and alpha 5 agonist; and an alpha 1 antagonist) is assessed for its antipruritic effects against a cheek injection of 100 μg histamine in wild-type C57BL/6 mice. The mice are dosed with PF-06372865 by oral gavage ninety (90) minutes before histamine injection. Doses of PF-06372865 are vehicle, 1, 3, 10, 30 and 100 mg/kg.

[2] = tested on: Chloroquine (CQ)-Induced Itch Model in Male C57BL/6 Mice; assay: Chloroquine Induced Itch Model, PF-06372865 (Example 1)
Experimental: PF-06372865 was evaluated as an antipruritic and/or antidermatitis agent using a Chloroquine Induced Itch Model in male C57BL/6 mice.
Male C57BL/6 Mice (8-10 weeks) were used in the study. Animals were procured from CRL, Hylasco (CPSCEA registered animal supplier).
Mice were housed one per cage and maintained at controlled environmental conditions with 12-h light and dark cycles. The temperature and humidity of the room were maintained between 22±3° C. and 55±5%, respectively. The maximum and minimum temperature and relative humidity in the experimental rooms were recorded once daily. […]
PF-06372865 was weighed into a clean mortar. Liquefied Solutol (i.e., Polyoxyl 15 Hydroxystearate) was added drop wise and triturated using a pestle for 2-3 minutes, then Glycerol formal was added and mixed in same fashion. The volume was made up by slowly adding the required volume of water. The resulting mixture was mixed well using mild vortexing to provide a homogeneous suspension. (Details in below chart)
27 mg of chloroquine phosphate was weighed in a clean glass container. 6 mL PBS was added, and the resulting mixture was mixed well using mild vortexing to form the desired strength solution.
The right-side cheek area of all the animals was shaved with animal clippers 1 day prior to the experiment. Animals were randomized into different treatment groups (n=9/group) based on body weight to avoid variability in weights across groups. NCT10004 Phosphate and PF-06372865 formulations and chloroquine phosphate solution were prepared on the day of the experiment.
(§1) Animals were dosed per oral with respective treatment group using a dose volume of 10 ml/kg. Times of dosing were recorded. Immediately after compound treatment, animals were kept in an empty transparent chamber (23 cm length×17 cm width) for acclimatization and observation.
(§2) Ninety (90) minutes post compound dosing, 50-μl of chloroquine phosphate solution (a 200-μg dose) was injected intracutaneously into the animal's right cheek. Animals were returned to the same chamber for observation. Animals were observed by an observer blind to the treatment group for a period of 30 minutes post chloroquine injection. Total number of bouts of scratching directed at the ipsilateral cheek were recorded for 30 minutes.

[3] = tested on: Non-Histamine-Induced Itch Model in Male C57BL/6 Mice; assay: Non-Histamine (chloroquine)-Induced Itch Model (Example 5); settings: oral gavage 90 min before chloroquine; 1, 3, 10, 30 and 100 mg/kg
Experimental: The mice are dosed with PF-06372865 by oral gavage ninety (90) minutes before chloroquine injection. Doses of PF-06372865 are 1, 3, 10, 30 and 100 mg/kg.

Male C57BL/6 Mice = assay: Sedation, behavioral change and clinical signs observed in Example 1
Experimental: as §1, §2

[4] = 0.3 mg/kg PO, individual animals
[5] = 10 mg/kg PO, individual animals
[6] = 30 mg/kg PO, individual animals

For `CCn1cnc2c(-c3ccc(F)c(-c4ccc(S(=O)(=O)CC)cc4OC)c3)cnnc21` [PF-06372865], the “scratching bouts, histaminergic itch” value [1] was “dose-dependent reduction of scratching bouts”, the “Scratching bouts (Nos.) in 30 min, 0-5 min” value (shortened to “Scratching bouts … 0-5 min”) ([2]; 0.3 mg/kg PO, MEAN, N=9) was 2.22 Nos and the “Scratching bouts (Nos.) in 30 min, 5-10 min” value (“Scratching bouts … 5-10 min” for short) ([2]; 0.3 mg/kg PO, MEAN, N=9) was 6.67 Nos. For the same molecule, the “Scratching bouts (Nos.) in 30 min, 10-15 min” value (“Scratching bouts … 10-15 min” for short) ([2]; 0.3 mg/kg PO, MEAN, N=9) was 26.22 Nos, the “Scratching bouts (Nos.) in 30 min, 15-20 min” value (from here on “Scratching bouts … 15-20 min”) ([2]; 0.3 mg/kg PO, MEAN, N=9) was 24.67 Nos and the “Scratching bouts (Nos.) in 30 min, 20-25 min” value (from here on “Scratching bouts … 20-25 min”) ([2]; 0.3 mg/kg PO, MEAN, N=9) was 21.00 Nos. The “Scratching bouts (Nos.) in 30 min, 25-30 min” value (from here on “Scratching bouts … 25-30 min”) ([2]; 0.3 mg/kg PO, MEAN, N=9) was 0.00 Nos, the “Total Scratching bouts” value ([2]; 0.3 mg/kg PO, MEAN, N=9) was 80.78 Nos./30 min and the “Scratching bouts … 0-5 min” value [2, 4] was 0 Nos. (6×) and 1 Nos. and 15 Nos. and 4 Nos. The “Scratching bouts … 5-10 min” value [2, 4] was 56 Nos. and 0 Nos. (6×) and 1 Nos. and 3 Nos, the “Scratching bouts … 10-15 min” value [2, 4] was 47 Nos. and 0 Nos. (3×) and 19 Nos. and 46 Nos. and 76 Nos. and 21 Nos. and 27 Nos and the “Scratching bouts … 15-20 min” value [2, 4] was 10 Nos. and 25 Nos. (2×) and 39 Nos. and 13 Nos. and 36 Nos. and 31 Nos. and 11 Nos. and 32 Nos. The “Scratching bouts … 20-25 min” value [2, 4] was 0 Nos. (3×) and 49 Nos. and 33 Nos. and 27 Nos. (2×) and 24 Nos. and 29 Nos, the “Scratching bouts … 25-30 min” value [2, 4] was 0 Nos and the “Total Scratching bouts” value [2, 4] was 113 Nos./30 min and 74 Nos./30 min and 25 Nos./30 min and 72 Nos./30 min and 33 Nos./30 min and 110 Nos./30 min and 149 Nos./30 min and 56 Nos./30 min and 95 Nos./30 min. The “Scratching bouts … 0-5 min” value ([2]; 1 mg/kg PO, MEAN, N=9) was 1.22 Nos, the “Scratching bouts … 5-10 min” value ([2]; 1 mg/kg PO, MEAN, N=9) was 20.56 Nos and the “Scratching bouts … 10-15 min” value ([2]; 1 mg/kg PO, MEAN, N=9) was 9.11 Nos. For the same molecule, the “Scratching bouts … 15-20 min” value ([2]; 1 mg/kg PO, MEAN, N=9) was 23.11 Nos, the “Scratching bouts … 20-25 min” value ([2]; 1 mg/kg PO, MEAN, N=9) was 8.33 Nos and the “Scratching bouts … 25-30 min” value ([2]; 1 mg/kg PO, MEAN, N=9) was 8.11 Nos. For the same molecule, the “Total Scratching bouts” value ([2]; 1 mg/kg PO, MEAN, N=9) was 70.44 Nos./30 min, the “Scratching bouts … 0-5 min” value ([2]; 1 mg/kg PO, individual animals) was 0 Nos. (6×) and 1 Nos. and 8 Nos. and 2 Nos and the “Scratching bouts … 5-10 min” value ([2]; 1 mg/kg PO, individual animals) was 22 Nos. and 0 Nos. (2×) and 18 Nos. (2×) and 13 Nos. and 62 Nos. and 49 Nos. and 3 Nos. The “Scratching bouts … 10-15 min” value ([2]; 1 mg/kg PO, individual animals) was 9 Nos. (2×) and 0 Nos. (3×) and 13 Nos. and 1 Nos. and 4 Nos. and 46 Nos, the “Scratching bouts … 15-20 min” value ([2]; 1 mg/kg PO, individual animals) was 41 Nos. and 14 Nos. and 28 Nos. (2×) and 16 Nos. and 45 Nos. and 25 Nos. and 11 Nos. and 0 Nos and the “Scratching bouts … 20-25 min” value ([2]; 1 mg/kg PO, individual animals) was 28 Nos. and 0 Nos. (5×) and 18 Nos. and 8 Nos. and 21 Nos. The “Scratching bouts … 25-30 min” value ([2]; 1 mg/kg PO, individual animals) was 6 Nos. and 25 Nos. and 4 Nos. and 0 Nos. (4×) and 14 Nos. and 24 Nos, the “Total Scratching bouts” value ([2]; 1 mg/kg PO, individual animals) was 106 Nos./30 min and 39 Nos./30 min and 81 Nos./30 min and 26 Nos./30 min and 93 Nos./30 min and 95 Nos./30 min and 71 Nos./30 min and 22 Nos./30 min and 101 Nos./30 min and the “Scratching bouts … 0-5 min” value ([2]; 3 mg/kg PO, MEAN, N=9) was 4.89 Nos. The “Scratching bouts … 5-10 min” value ([2]; 3 mg/kg PO, MEAN, N=9) was 3.89 Nos, the “Scratching bouts … 10-15 min” value ([2]; 3 mg/kg PO, MEAN, N=9) was 11.44 Nos and the “Scratching bouts … 15-20 min” value ([2]; 3 mg/kg PO, MEAN, N=9) was 9.89 Nos. For the same molecule, the “Scratching bouts … 20-25 min” value ([2]; 3 mg/kg PO, MEAN, N=9) was 4.33 Nos, the “Scratching bouts … 25-30 min” value ([2]; 3 mg/kg PO, MEAN, N=9) was 3.44 Nos and the “Total Scratching bouts” value ([2]; 3 mg/kg PO, MEAN, N=9) was 37.89 Nos./30 min. The “Scratching bouts … 0-5 min” value ([2]; 3 mg/kg PO, individual animals) was 16 Nos. and 0 Nos. (4×) and 19 Nos. and 1 Nos. and 3 Nos. and 5 Nos, the “Scratching bouts … 5-10 min” value ([2]; 3 mg/kg PO, individual animals) was 0 Nos. (7×) and 33 Nos. and 2 Nos and the “Scratching bouts … 10-15 min” value ([2]; 3 mg/kg PO, individual animals) was 44 Nos. and 4 Nos. and 0 Nos. (4×) and 10 Nos. and 16 Nos. and 29 Nos. The “Scratching bouts … 15-20 min” value ([2]; 3 mg/kg PO, individual animals) was 17 Nos. and 14 Nos. and 33 Nos. and 0 Nos. (4×) and 3 Nos. and 22 Nos, the “Scratching bouts … 20-25 min” value ([2]; 3 mg/kg PO, individual animals) was 13 Nos. and 0 Nos. (5×) and 14 Nos. and 3 Nos. and 9 Nos and the “Scratching bouts … 25-30 min” value ([2]; 3 mg/kg PO, individual animals) was 9 Nos. and 0 Nos. (5×) and 3 Nos. and 15 Nos. and 4 Nos. The “Total Scratching bouts” value ([2]; 3 mg/kg PO, individual animals) was 99 Nos./30 min and 18 Nos./30 min and 66 Nos./30 min and 29 Nos./30 min and 24 Nos./30 min and 59 Nos./30 min and 3 Nos./30 min and 12 Nos./30 min and 31 Nos./30 min, the “Scratching bouts … 0-5 min” value ([2]; 10 mg/kg PO, MEAN, N=9) was 0.00 Nos and the “Scratching bouts … 5-10 min” value ([2]; 10 mg/kg PO, MEAN, N=9) was 0.00 Nos. The “Scratching bouts … 10-15 min” value ([2]; 10 mg/kg PO, MEAN, N=9) was 7.33 Nos, the “Scratching bouts … 15-20 min” value ([2]; 10 mg/kg PO, MEAN, N=9) was 4.11 Nos and the “Scratching bouts … 20-25 min” value ([2]; 10 mg/kg PO, MEAN, N=9) was 2.78 Nos. For the same molecule, the “Scratching bouts … 25-30 min” value ([2]; 10 mg/kg PO, MEAN, N=9) was 1.11 Nos, the “Total Scratching bouts” value ([2]; 10 mg/kg PO, MEAN, N=9) was 15.33 Nos./30 min and the “Scratching bouts … 0-5 min” value [2, 5] was 0 Nos. For the same molecule, the “Scratching bouts … 5-10 min” value [2, 5] was 0 Nos, the “Scratching bouts … 10-15 min” value [2, 5] was 0 Nos. (7×) and 33 Nos. (2×) and the “Scratching bouts … 15-20 min” value [2, 5] was 0 Nos. (6×) and 8 Nos. and 3 Nos. and 26 Nos. The “Scratching bouts … 20-25 min” value [2, 5] was 0 Nos. (6×) and 12 Nos. and 9 Nos. and 4 Nos, the “Scratching bouts … 25-30 min” value [2, 5] was 2 Nos. (2×) and 0 Nos. (6×) and 6 Nos and the “Total Scratching bouts” value [2, 5] was 2 Nos./30 min and 14 Nos./30 min and 41 Nos./30 min and 33 Nos./30 min and 0 Nos./30 min (2×) and 15 Nos./30 min and 3 Nos./30 min and 30 Nos./30 min. For the same molecule, the “Scratching bouts … 0-5 min” value ([2]; 30 mg/kg PO, MEAN, N=9) was 0.00 Nos, the “Scratching bouts … 5-10 min” value ([2]; 30 mg/kg PO, MEAN, N=9) was 0.00 Nos and the “Scratching bouts … 10-15 min” value ([2]; 30 mg/kg PO, MEAN, N=9) was 0.00 Nos. The “Scratching bouts … 15-20 min” value ([2]; 30 mg/kg PO, MEAN, N=9) was 0.00 Nos, the “Scratching bouts … 20-25 min” value ([2]; 30 mg/kg PO, MEAN, N=9) was 0.00 Nos and the “Scratching bouts … 25-30 min” value ([2]; 30 mg/kg PO, MEAN, N=9) was 0.00 Nos. The “Total Scratching bouts” value ([2]; 30 mg/kg PO, MEAN, N=9) was 0.00 Nos./30 min, the “Scratching bouts … 0-5 min” value [2, 6] was 0 Nos and the “Scratching bouts … 5-10 min” value [2, 6] was 0 Nos. For the same molecule, the “Scratching bouts … 10-15 min” value [2, 6] was 0 Nos, the “Scratching bouts … 15-20 min” value [2, 6] was 0 Nos and the “Scratching bouts … 20-25 min” value [2, 6] was 0 Nos. The “Scratching bouts … 25-30 min” value [2, 6] was 0 Nos, the “Total Scratching bouts” value [2, 6] was 0 Nos./30 min and the “scratching bouts compared to vehicle treatment, significance” value ([2]; at 0.3, 1, 3, 10 and 30 mg/kg doses) was “Statistically significant decrease”. The “total number of scratching bouts, dose response” value ([2]; quantified for 30 minutes post CQ injection, 0.3-30 mg/kg PO) was “dose dependent decrease”, the “scratching bouts, chloroquine-induced itch” value [3] was “dose-dependent reduction of scratching bouts” and the sedation (Male C57BL/6 Mice; 3 mg/kg PO) was “Minimal sedation”. The “other behavioral change or clinical sign” value (Male C57BL/6 Mice; any of the PF-06372865 treatment groups (0.3-30 mg/kg PO)) was “No other behavioral change or clinical sign were observed” and the sedation (Male C57BL/6 Mice; at 10 mg/kg and 30 mg/kg PO) was “Dose dependent increase in sedation”.

Source: patent US11571421B2, “GABAA positive allosteric modulator compounds for treatment of itch and/or dermatitis” (NeuroCycle Therapeutics, Inc., priority 2018, dated 2023)
